From patent US10351566B2, “Therapeutic compounds for pain and synthesis thereof” (priority 2015, dated 2019)
Read-outs that look alike come from different tables or passages of the source.

Tests used:
[1] = test system: selected targets (including some important cardiovascular safety-related targets); conditions: at 10 μM
Method: A Cerep activity screen was conducted and was negative against the selected targets at 10 μM (including some important cardiovascular safety-related targets) for Formula 1.

[2] = assay type: in vivo; conditions: mice, 10 mg/kg IP
Method: Mice received a 10 mg/kg IP dose of Formula 1. The animals were placed in the open field apparatus after 30 minutes (box of 0.5×0.5×0.5 m length, width and height) for a period of 5 min. The animals' walking distance and speed were evaluated and compared to the vehicle-treated group.

[3] = test system: 14-3-3σ; test: 14-3-3σ expression in plasma and hind paw skin of Taxol dosed mice (Somascan); assay type: in vivo
Method: The Taxol model was used in order to investigate the MoA of Formula 1.
Animals showing chemotherapy-induced pain following repeated doses of taxol were treated with either vehicle gabapentin or Formula 1. Plasma was collected following the first dose of the test items and after 7 days of daily treatment. Skin from hind paws were also collected following 7 days of daily treatment. The tissues were processed and the expression levels on 1310 proteins were assessed (Somascan provided by SomaLogic, Inc., Boulder, Colo.).
Three statistical methods were used to identify protein expression that discriminated between Formula 1, gabapentin and vehicle on day 8, following a single dose, and on study day 14 following multiple dosing.
A comparison between day 8 and day 14 within each group was also performed. All methods were conducted on scaled data. First, a Student's t-test was performed in order to compare proteins between groups. Second, the LASSO (least absolute shrinkage and selection operator) method was applied. This is a regression technique that simultaneously performs variable selection and model coefficient modification. These models used group as the outcome and all 1310 proteins as the starting predictors. LASSO was then tuned to shrink unimportant coefficients to zero, leaving approximately the ten most important predictors of (or discriminators between) the groups. […]

[4] = assay type: in vivo; conditions: mice
Method: Fecal excretion of the parent compound was evaluated following oral administration of Formula 1 in mice at a dose of 50 mg/kg and intravenous administration at a dose of 5 mg/kg. Peak concentrations in feces were 150 μg/g and 33 μg/g from oral and intravenous dosing, respectively. These peak concentrations were generally achieved within 1 h post-oral dosing and within 5 min post-intravenous doing. The concentrations remained high (greater than 1 μg/g) even after 8 h post-dosing by both administration routes (FIG. 18).

[5] = in vivo
Excerpt: Formula 1 was discovered following a comprehensive Senerga® Phenotypic screening.

[6] = in vitro; assay type: in vitro ADME; conditions: 1 μM; for microsomal CLint: read-out: intrinsic clearance (CLint)
Method: Metabolic stability studies in mouse, rat and human liver microsomes were performed at a compound concentration of 1 μM.

[7] = molecular target: T1, CYP2C8 (Homo sapiens, UniProt P10632); test: Reversible CYP450 inhibition, cocktail format; assay type: biochemical; conditions: 2C8, reversible inhibition, preliminary
T1 sequence (P10632 1-490): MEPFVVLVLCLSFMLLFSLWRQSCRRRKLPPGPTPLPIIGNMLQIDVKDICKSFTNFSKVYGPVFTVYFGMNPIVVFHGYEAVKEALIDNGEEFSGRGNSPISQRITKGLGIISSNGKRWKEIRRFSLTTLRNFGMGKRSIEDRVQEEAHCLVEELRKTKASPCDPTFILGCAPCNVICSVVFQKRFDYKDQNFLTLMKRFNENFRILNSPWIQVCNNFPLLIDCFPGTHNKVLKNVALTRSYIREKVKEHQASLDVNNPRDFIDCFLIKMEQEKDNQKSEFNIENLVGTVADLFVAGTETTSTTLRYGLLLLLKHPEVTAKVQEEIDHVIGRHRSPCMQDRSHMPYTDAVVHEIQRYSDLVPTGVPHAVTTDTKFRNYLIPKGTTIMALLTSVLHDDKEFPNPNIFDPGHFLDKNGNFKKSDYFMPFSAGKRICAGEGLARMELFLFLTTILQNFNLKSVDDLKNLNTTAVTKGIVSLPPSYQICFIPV
Method: (§1) Preliminary in vitro studies on reversible inhibition of major CYP450 enzymes were conducted in a cocktail format for this compound. The IC50 values were 4 μM for CYP2C9, 5 μM for CYP2C19, and greater than 10 μM for CYP3A4, 2C8, 2D6, and 1A2. If total plasma concentrations in humans are less than 0.4 μM, then in vivo drug interaction studies in clinical trials may not be required for this compound.

[8] = molecular target: CYP2C9 (Homo sapiens, UniProt P11712); test: Reversible CYP450 inhibition, cocktail format; assay type: biochemical; conditions: preliminary
Method: as §1

[9] = molecular target: CYP2C19 (Homo sapiens, UniProt P33261); test: Reversible CYP450 inhibition, cocktail format; assay type: biochemical; conditions: preliminary
Method: as §1

[10] = Tolerability / repeated dosing safety in mice; assay type: in vivo; conditions: for Findings: Mice
Method: The tolerability of Formula 1 was evaluated in mice and rats.

[11] = in vitro; assay type: in vitro ADME; conditions: 1 μM, read-out: plasma protein bound (converted)
Method: The plasma protein binding assay for Formula 1 was conducted in mouse and human plasma at a single concentration of 1 μM using the method of equilibrium dialysis. […] The plasma protein binding of the compound is acceptable.

[12] = 30 minutes after dosing, 5 min in open field

CYP2C19, sequence (P33261 whole entry): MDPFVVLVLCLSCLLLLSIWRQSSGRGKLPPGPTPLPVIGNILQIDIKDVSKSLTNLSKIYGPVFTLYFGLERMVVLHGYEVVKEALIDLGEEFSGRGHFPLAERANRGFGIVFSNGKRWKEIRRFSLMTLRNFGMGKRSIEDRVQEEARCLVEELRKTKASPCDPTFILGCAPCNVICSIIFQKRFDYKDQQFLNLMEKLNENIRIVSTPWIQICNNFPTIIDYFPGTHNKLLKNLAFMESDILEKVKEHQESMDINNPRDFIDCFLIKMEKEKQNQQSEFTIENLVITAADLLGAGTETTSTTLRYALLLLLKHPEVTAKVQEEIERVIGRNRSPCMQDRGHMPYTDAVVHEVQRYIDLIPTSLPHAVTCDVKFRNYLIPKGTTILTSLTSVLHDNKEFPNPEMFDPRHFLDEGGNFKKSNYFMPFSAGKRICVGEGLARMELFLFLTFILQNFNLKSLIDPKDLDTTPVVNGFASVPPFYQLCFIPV
CYP2C9, sequence (P11712 whole entry): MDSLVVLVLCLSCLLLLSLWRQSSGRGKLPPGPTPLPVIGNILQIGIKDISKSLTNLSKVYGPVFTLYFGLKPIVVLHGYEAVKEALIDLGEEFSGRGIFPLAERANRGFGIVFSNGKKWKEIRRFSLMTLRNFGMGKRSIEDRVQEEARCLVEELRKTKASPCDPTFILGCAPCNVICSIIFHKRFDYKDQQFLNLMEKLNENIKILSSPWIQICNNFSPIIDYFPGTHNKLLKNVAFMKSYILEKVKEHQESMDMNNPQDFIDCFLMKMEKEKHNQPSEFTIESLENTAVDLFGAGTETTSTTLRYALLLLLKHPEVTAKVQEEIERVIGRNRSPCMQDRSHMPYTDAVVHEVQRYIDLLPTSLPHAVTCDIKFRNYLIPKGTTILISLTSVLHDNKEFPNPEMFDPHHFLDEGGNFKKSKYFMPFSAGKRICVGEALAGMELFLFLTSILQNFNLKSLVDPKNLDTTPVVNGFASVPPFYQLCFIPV

Question: For `CC(C)(C)C(=O)O[C@@H]1[C@@H]2[C@H]3C[C@H](C[C@@H]1N3Cc1ccccn1)CN2C(=O)CC(F)(F)F` (relative stereo) [Formula 1, (2S*,3S*,3aS*,6R*,7aR*)-1-(pyridin-2-ylmethyl)-4-(3,3,3-trifluoropropanoyl)octahydro-1H-2,6-methanopyrrolo[3,2-b]pyridin-3-yl pivalate], which “Cerep activity screen result” value [1] is on record?
Answer: negative

Question: And the “walking distance and speed vs. vehicle-treated group” value [2]?
Answer: No difference was found

Question: What about the Distance [2, 12] of the same molecule?
Answer: 1.94 ± 0.89 m

Question: What about the “Time spent in the center of the field” value [2, 12] of the same molecule?
Answer: 34.82 ± 23.53 s

Question: And the “14-3-3σ expression in the skin” value ([3]; hind plantar skin, study day 14, repeated dosing, vs. vehicle)?
Answer: significantly reduced

Question: And the “relative decrease in stratifin (14-3-3σ)” value ([3]; plasma, day 8 to day 14, daily treatment, Taxol dosed mice, vs. naïve animals)?
Answer: ~50%

Question: What about the “concentration in feces after 8 h post-dosing” value ([4]; intravenous 5 mg/kg) of the same molecule?
Answer: greater than 1 μg/g

Question: And the “peak concentration in feces” value ([4]; intravenous 5 mg/kg)?
Answer: 33 µg/g

Question: And the “time to peak concentration in feces” value ([4]; intravenous 5 mg/kg)?
Answer: ≤ 5 min

Question: And the “concentration in feces after 8 h post-dosing” value ([4]; oral 50 mg/kg)?
Answer: greater than 1 μg/g

Question: What about the “peak concentration in feces” value ([4]; oral 50 mg/kg) of the same molecule?
Answer: 150 µg/g

Question: And the “time to peak concentration in feces” value ([4]; oral 50 mg/kg)?
Answer: ≤ 60 min

Question: And the “activity in pain-related models” value [5]?
Answer: showed activity in pain-related models

Question: What about the “effect on blood pressure” value [5] of the same molecule?
Answer: no effect on blood pressure

Question: What about the “effect on bodyweight or food consumption” value [5] of the same molecule?
Answer: no effect on bodyweight or food consumption

Question: And the “effect on specific CNS-related tests” value [5]?
Answer: no effect on specific CNS-related tests

Question: And the effect on swelling [5]?
Answer: not effective on swelling

Question: What about the post-mortem finding [5] of the same molecule?
Answer: no post-mortem finding

Question: And the “withdrawal threshold of naïve animals” value [5]?
Answer: without affecting the withdrawal threshold of naïve animals

Question: What about the half-life ([6]; human liver microsomes) of the same molecule?
Answer: 8 min

Question: And the microsomal CLint ([6]; human liver microsomes)?
Answer: 174 µL/min/mg

Question: And the half-life ([6]; mouse liver microsomes)?
Answer: < 4 min

Question: What about the microsomal CLint ([6]; mouse liver microsomes) of the same molecule?
Answer: > 346 µL/min/mg

Question: What about the half-life ([6]; rat liver microsomes) of the same molecule?
Answer: < 4 min

Question: And the microsomal CLint ([6]; rat liver microsomes)?
Answer: > 346 µL/min/mg

Question: What about the IC50 [7] of the same molecule?
Answer: > 10 µM

Question: What about the IC50 [8] of the same molecule?
Answer: 4 µM

Question: What about the IC50 [9] of the same molecule?
Answer: 5 µM

Question: And the Findings ([10]; IP, 10 mg/kg, 31 days)?
Answer: NPF

Question: What about the Findings ([10]; IP, 30 mg/kg, 5 days) of the same molecule?
Answer: NPF

Question: And the Findings ([10]; PO, 50 mg/kg, 5 days)?
Answer: NPF

Question: What about the Findings ([10]; SC, 60 mg/kg, 5 days) of the same molecule?
Answer: NPF

Question: And the tolerability ([10]; mice, 5 days intraperitoneal dosing at 30 mg/kg)?
Answer: well tolerated

Question: What about the tolerability ([10]; mice, 5 days oral dosing at 50 mg/kg) of the same molecule?
Answer: well tolerated

Question: And the tolerability ([10]; mice, 5 days subcutaneous dosing at 60 mg/kg)?
Answer: well tolerated

Question: What about the tolerability ([10]; mouse, single dose of 100 mg/kg) of the same molecule?
Answer: tolerated

Question: What about the fraction unbound ([11]; human plasma) of the same molecule?
Answer: 0.08

Question: And the fraction unbound ([11]; mouse plasma)?
Answer: 0.16
